What was measured:
[1] = tested on: CT genes; settings: cited from earlier work; for expression of CT genes, combination with 5-AZA-DC: HDAC inhibitor combined with 5-AZA-DC
[2] = tested on: MAGE-A9 gene expression in bladder cancer cell lines; assay: RT-PCR analysis of MAGE-A9 gene expression induction in bladder cancer cell lines; settings: MGH-U3, 5637 and VMCUB-3; 1 μM 5-AZA-DC alone, 96 hours

## C/C=C1\NC(=O)[C@H]2CSSCC/C=C/[C@H](CC(=O)N[C@H](C(C)C)C(=O)N2)OC(=O)[C@H](C(C)C)NC1=O [depsipetide]
[1]
  expression of CT genes, combination with 5-AZA-DC: stronger expression

## Nc1ncn([C@H]2C[C@H](O)[C@@H](CO)O2)c(=O)n1 [5-AZA-DC, 5-aza-2′-deoxycytidine]
[1]; single agent
  induction of the expression of several CT genes: potent inducers
[2]
  MAGE-A9 mRNA induction: strongly induced

## CC(/C=C/C(=O)NO)=C\[C@@H](C)C(=O)c1ccc(N(C)C)cc1 [trichostatin A]
[1]
  expression of CT genes, combination with 5-AZA-DC: stronger expression
